Drawing on the supplement of paper PMC4862054, this text covers normalised viability for 1 compound.

SMILES strings stand for the structures.

Holding throughout (test): normalised viability (% of control), CellTiter-Blue; higher = more viable cells (100 = DMSO, 0 = benzethonium chloride kill control)
Settings in all cases: incubation time: 72 h
For orientation: The colour change of resazurin is a common sign of viable cells or microbes.

For one test, the system named is HCC1599. Here is the method:
(§1)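 DSRT, CellTiter-Blue viability, 72 h incubation. Signal is normalised to DMSO and benzethonium chloride controls. Value is the normalised response at dose 1.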

In a further test the test system is BT-549. The procedure:
as §1

The test system of the next test is HDQ-P1. The procedure:
as §1

The next test concerns CAL-148. The procedure: as §1
A further test deals with MDA-MB-231. The procedure:
as §1

A further test relates to CAL-120. The procedure: as §1
Another test has as its system SK-BR-3. Here is the method: as §1
The next test deals with MDA-MB-468. Here is the method:
as §1

The next test concerns BT-474. Here is the method: as §1
Another test deals with CAL-51. Here is the method: as §1
Another test concerns HCC1143. The procedure: as §1
A further test relates to HCC1937. Here is the method:
as §1

The test system of another test is MFM-223. The procedure: as §1
For another test, the system named is Hs578T. Here is the method:
as §1

A further test relates to CAL-85-1. Here is the method:
as §1

A further test has as its system MDA-MB-436. The procedure: as §1
The next test concerns DU-4475. Here is the method: as §1
Another test concerns MDA-MB-453. Here is the method: as §1

Consider `COc1cc(Nc2ncc(F)c(Nc3ccc4c(n3)NC(=O)C(C)(C)O4)n2)cc(OC)c1OC` [R406] (1 nM), for which the normalised viability with HCC1599 came to 101%; with BT-549 it was 97%; in the test on HDQ-P1, 116%; in the test with CAL-148, 110%; in the test with MDA-MB-231 it was 95.7%; with CAL-120 it was 83.5%. The normalised viability in the test on SK-BR-3 was 102%; in the test with MDA-MB-468, 94.1%; with BT-474 it was 117%; in the test on CAL-51, 106%; with HCC1143 it was 91.6%; with HCC1937, 91.6%. Also, the normalised viability in the test with MFM-223 is 93.3%; in the test on Hs578T, 116%; in the test on CAL-85-1, 84.8%; with MDA-MB-436 it was 92.1%; in the test on DU-4475, 112%; in the test on MDA-MB-453, 106%.
